According to patent US20230157308A1, “PERMEABILIZED MICROBIAL CELL CATALYSTS” (DANMARKS TEKNISKE UNIVERSITET, priority 2020, published 2023):

Legend:
[1] = test system: S. thermophilus CS1980 cells; experiment: Lactose hydrolysis by permeabilized S. thermophilus CS1980 cells; format: cell-based, Streptococcus thermophilus; details: for effectiveness in cell permeabilization: 100 mg/L agent, 100 mg/l S. thermophilus cells, POM buffer
Protocol: S. thermophilus strains were grown in 500-ml Erlenmeyer flasks containing 200 mL of medium at 37° C. for 16 h without agitation. 2 mL of an overnight culture was used as inoculum. Cells were collected by centrifugation at 10,000×g for 10 min at 4° C., washed once with sterile POM buffer (50 mM K2HPO4/KH2PO4, 1 mM MgCl2, pH 7.4) and finally re-suspended in POM buffer to an optical density (OD600) of 0.3, corresponding to approximately 0.1 g/L (dry weight basis). For permeabilization, cell suspensions were dispensed into sterile tubes (1 mL per tube) and centrifuged in a microcentrifuge at 10,000×g for 5 min at 4° C. After decanting the supernatants, cell pellets were resuspended in 1 mL POM buffer containing different concentrations (10 mg/l and 100 mg/l) of monolaurin (Toronto Research Chemicals, Toronto, Canada), and were maintained for 10 min at 28° C. Non permeabilized cells in POM buffer were used as control. 100 mg/l of monomyristin was also tested as premeabilization agent. The cells were resuspended in POM buffered lactose (50 g/L) solution. The hydrolysis was carried out at 50° C. for 2 h. The concentration of lactose, glucose and galactose was determined on an Ultimate 3000 high-performance liquid chromatography (HPLC) system (Dionex) equipped with an Aminex HPX-87H column (Bio-Rad) and a Shodex RI-101 detector (Showa Denko K.K.). The column oven temperature was set to 60° C., and the mobile phase consisted of 5 mM H2SO4. The flow rate used was 0.5 mL/min.

[2] = test system: Lactococcus lactis biovar. diacetylactis RD1M5 cells; experiment: Acetoin production from pyruvate by permeabilized RD1M5 cells; format: cell-based; details: 100 mg/L monolaurin, 20 min at 30° C.; 700 mg/L cells, 100 mM pyruvate, 1 h
Protocol: Lactococcus lactis biovar. diacetylactis RD1M5 was permeabilized as described in example 1.2, using 100 mg/L monolaurin for 20 min at 30° C. 700 mg/L cells were suspended in POM buffer solution with 100 mM pyruvate. After 1 h, the cells were removed and the supernatant was used to quantify the acetoin concentration. Quantification of lactose, lactate, acetoin, and citrate were carried out using an Ultimate high-performance liquid chromatography system equipped with a Aminex HPX-87H column (300×7.8 mm column) (Bio-Rad, Hercules, USA) and a Shodex RI-101 refractive index detector (Showa Denko K.K., Tokyo, Japan). The mobile phase was 5 mM H2SO4 with a flow rate of 0.5 mL/min and the column oven temperature was maintained at 60° C.

S. thermophilus CS1980 [3] = experiment: Permeabilization of S. thermophilus CS1980 at different temperatures; format: cell-based, Streptococcus thermophilus; details: permeabilization temperatures 20-50° C.
Protocol: […] Controls are prepared without addition of monolaurin in the permeabilization step. Hydrolysis of lactose by monolaurin-treated cells is carried out in a POM buffered solution.

S. thermophilus CS1980 [4] = experiment: Lactose hydrolysis: monolaurin- versus ethanol-permeabilized cells; format: cell-based, Streptococcus thermophilus; details: for stability of the whole-cell catalyst: 100 μg/ml monolaurin or 45% (v/v) ethanol, 10 min at 28° C.
Protocol: S. thermophilus CS1980 was permeabilized for 10 minutes at 28° C. using (i) 100 μg/ml monolaurin in POM buffer or (ii) 45% (v/v) ethanol for 10 minutes, or (iii) not permeabilized (control). Hydrolysis of lactose in POM buffer (50 g/l lactose) at 50° C. was carried out at a cell concentration of approximately 100 mg/l.

Q: With CCCCCCCCCCCC(=O)OCC(O)CO (stereo not drawn) [monolaurin] as the molecule, how does the “effectiveness in cell permeabilization” value [1] read?
A: efficiently permeabilizes the cells

Q: And the “lactose hydrolyzed by permeabilized cells” value ([1]; cells permeabilized 10 min at 28° C., 50 g/L lactose, 2 hours at 50° C., 100 mg/L cells (dry weight))?
A: 55%

Q: What about the “hydrolysis by cells treated with too low monolaurin concentration” value ([1]; too low monolaurin concentration (10 mg/l tested), 50 g/L lactose, 50° C.) of the same molecule?
A: neglectable

Q: What about the “acetoin produced from pyruvate compared to non-treated cells” value [2] of the same molecule?
A: much higher concentrations of acetoin

Q: And the “efficiency of permeabilization over temperature range” value (S. thermophilus CS1980 [3])?
A: equally efficient

Q: What about the “stability of the whole-cell catalyst” value (S. thermophilus CS1980 [4]) of the same molecule?
A: higher stability

Q: And the “lactose conversion by permeabilized cells” value (S. thermophilus CS1980 [4]; permeabilized 10 min at 28° C., 100 μg/ml monolaurin, 50 g/l lactose, 50° C., about 100 mg/l cells)?
A: perform better than the control as well as the ethanol-permeabilized cells

Q: For CCO [ethanol, reference compound], which “stability of the whole-cell catalyst” value (S. thermophilus CS1980 [4]) is on record?
A: compromised the stability of the whole-cell catalyst

Q: CCCCCCCCCCCCCC(=O)OCC(O)CO (stereo not drawn) [Monomyristin, monomyristin] was tested. Which “effectiveness in cell permeabilization” value [1] did it give?
A: same effectiveness in cell permeabilization as monolaurin
